Data: article PMC8636943

What was measured:
[1] = system: G4-Apt (DNA, G4) AGGGACGGGACCGTCTTCCAGACAAGAGTGCAGGGAGGGACGGGA; assay: biolayer interferometry (Octet RED96); conditions: binding buffer (composition not given), 25 °C
[2] = system: anti-VEGF165 aptamer (DNA, aptamer) CCGTCTTCCAGACAAGAGTGCAGGG; assay: biolayer interferometry (Octet RED96); conditions: binding buffer (composition not given), 25 °C
[3] = target: VEGF165 (human, UniProt P15692-4 27-191); assay: BLI; BLI (Octet RED96), 25 C, 1000 rpm, 200 uL binding buffer (composition not given), VEGF165 6.25-100 nM, BSA blank as reference; conditions: protein: commercial, chain copies: 2
Chain of VEGF165 (P15692 other isoform, or with tags, fused parts or gaps): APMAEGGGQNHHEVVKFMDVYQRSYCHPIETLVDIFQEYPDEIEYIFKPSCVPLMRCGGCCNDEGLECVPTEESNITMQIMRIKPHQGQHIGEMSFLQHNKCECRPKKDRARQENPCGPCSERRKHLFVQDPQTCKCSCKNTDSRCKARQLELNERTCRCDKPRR

Cc1ccc2c(c1)sc(-c1ccc(N(C)C)cc1)[n+]2C
K D [1]: 52900 nM
binding [2]: no

B1: anti-VEGF165 aptamer (ssDNA)
DNA: CCGTCTTCCAGACAAGAGTGCAGGG
Kd ([3]; B-DNA form by CD): 0.287 nM

B2: G4-Apt (structured_DNA)
DNA: AGGGACGGGACCGTCTTCCAGACAAGAGTGCAGGGAGGGACGGGA
Kd ([3]; largely parallel G-quadruplex by CD): 0.538 nM
